Reference: patent publication US20080076808A1, “SKIN COMPOSITION” (MARS INCORPORATED, priority 2003, published 2008)
Read-outs that look alike come from different tables or passages of the source.

Legend:
canine keratinocytes [1] = assay: In vitro ceramide synthesis assay (14C-serine incorporation); type: cell-based; conditions: stated as 'has been shown'; FIGS. 2, 3, 7, 8
Procedure: Canine keratinocytes were obtained via explant culture of skin samples taken from healthy adult animals (4 mm biopsy). Samples are washed and dissected in cold PBS containing antibiotics. The epidermis is dissected away from the dermis and cut into 1 mm^2 pieces. The pieces of epidermis are then placed into individual wells of a 24 well collagen-coated plastic plate and briefly allowed to dry down (60 seconds). Green's medium supplemented with 10% fetal bovine serum is then added and the explants cultured for 7-10 days until keratinocytes begin growing out of the edges of the skin. The primary skin cells are now detached from the plastic and explant tissue using trypsin and moved onto a i3T3 (irradiated fibroblast) feeder layer. Cells are expanded on the feeder layer until near confluent at which time they can be moved onto plastic alone. The primary keratinocytes can be used for assays at this point or further expanded in number as required. Keratinocytes are seeded in collagen-coated 24 well plates at a density of 5×10^4 cells per well. These cells are allowed to settle overnight and then the media changed. Cells are then left for 4 days under proliferation promoting culture conditions (in the presence of bovine pituitary extract). Following the 4 days the media is changed to one that promotes differentiation and at this stage the supplement to be tested is added (see individual experiments). Following 6 days under these conditions [^14C]-Serine is added for the ceramide assay or [^14C]-Acetate added for the total lipid assay, in both cases at 0.5 microCi per well. Cells are incubated in the presence of the radioactive markers and supplement for 2 days. At the end of the incubation period cells were harvested using trypsin and washed using PBS. Lipids were subsequently extracted using Bligh-Dyer solution and then added to 4 ml of scintillation fluid. The radioactivity was counted with a liquid scintillation spectrometer. Results for the ceramide synthesis assays are seen in FIGS. 1-6. Results for total lipid synthesis assays are seen in FIGS. 7-8. […]

canine keratinocytes [2] = conditions: stated as 'known to'; FIG. 5; cited from earlier work

| Compound | epidermal ceramide synthesis (canine keratinocytes [1]) | epidermal ceramide synthesis (canine keratinocytes [2]) |
| --- | --- | --- |
| N[C@@H](Cc1c[nH]cn1)C(=O)O [Histidine, histidine] | increase | – |
| NC(=O)c1cccnc1 [Nicotinamide, nicotinamide] | increase | – |
| O=C(O)[C@@H]1CCCN1 [Proline, proline] | increase | – |
| Cc1ncc(CO)c(CO)c1O [Pyridoxine, pyridoxine] | – | increase |
